This note sets out measurements from patent US20170224664A1, “POWDER ORAL SUSPENSION FORMULATIONS OF ANTIBACTERIAL AGENTS” (Cempra Pharmaceuticals, Inc., priority 2014, published 2017).

Data set [1] in a line: Stability of SOL in the presence of excipients. Type of data set: physicochemical. From the text: It has unexpectedly been discovered that compounds described herein, such as SOL, are unstable in the presence of high relative amounts of sucralose. In another embodiment, the weight/weight ratio of API, such as SOL to sucralose is greater than about 3, greater than about 4, greater than about 5, greater than about 6, greater than about 7, greater than about 8, greater than about 9, or greater than about 10. Illustratively, the POS and suspension formulations described herein include one of more souring agents. It has unexpectedly been discovered that compounds described herein, such as SOL, are unstable in the presence of high relative amounts of citric acid. In another embodiment, the weight/weight ratio of API, such as SOL to citric acid is greater than about 50, greater than about 60, greater than about 70, greater than about 80, or greater than about 90. In another embodiment, the POS and suspension formulations described herein are substantially free of, or free of citric acid.

Data set [2] in a line: Solubility of SOL at different pH. It counts as physicochemical. The source says:
It has been discovered herein that the solubility of the compounds described herein generally decreases with increasing pH. […] It has also been discovered herein that at certain pH levels, a stable aqueous suspension of the compounds may be prepared. That suspension may also be prepared from a reconstitutable powder for oral suspension (POS). However, it has also been discovered that at certain limiting pH levels, a threshold amount of the compounds described herein are in solution and therefore such an oral suspension may have a bitter taste that compromises the efficacy thereof, such as due to poor patient compliance.

The structures appear in SMILES notation. Converted amounts (≈) assume the structure as drawn.

One may read the solubility as the concentration that dissolves in the medium under given conditions. Lower therefore signals little dissolved substance.

On to `CC[C@H]1OC(=O)[C@@](C)(F)C(=O)[C@H](C)[C@@H](O[C@@H]2O[C@H](C)C[C@H](N(C)C)[C@H]2O)[C@](C)(OC)C[C@@H](C)C(=O)[C@H](C)[C@H]2N(CCCCn3cc(-c4cccc(N)c4)nn3)C(=O)O[C@]12C` [SOL, solithromycin], for which the “stability in the presence of citric acid” value in data set [1] (high relative amounts of citric acid) is recorded as “unstable”. Further, the “stability in the presence of sucralose” value in data set [1] (high relative amounts of sucralose) is “unstable”. In addition, the solubility is 68000 µg/mL (≈ 80500 µM) in data set [2] (pH 5.7, aqueous buffer); 860 µg/mL (≈ 1020 µM) in data set [2] (pH 6.2, aqueous buffer); 70 µg/mL (≈ 82.8 µM) in data set [2] (pH 7.5, aqueous buffer).
